According to patent publication US20250067727A1, “BIOENGINEERED NEURONAL ORGANOIDS (BENOS) AND USES THEREOF” (Georg-August-Universität Göttingen Stiftung Öffentlichen …, priority 2017, published 2025):

What was measured:
[1] = system: bioengineered neuronal organoids (BENOs) from human pluripotent stem cells; test: qPCR transcript analysis of neuronal and glia markers in BENOs; type: cell-based; design: PAX6 transcripts: dose or concentration left out as unconfirmed
Method: (§1) In initial attempts, single SMAD pathway inhibition (using noggin) was employed to elicit neural induction, along with the addition of retinoic acid (RA). In the present study, it was tested whether dual SMAD signaling pathway inhibition using noggin and SB431542 during the neural induction phase (days 0-8) might further enhance neurogenesis, e.g., at day 28. Accordingly, NCM containing only noggin, or NCM containing noggin and SB431542, were each investigated.
Numerous conventional protocols in the literature employ neurotrophic factors BDNF and GDNF to improve neuronal survival at the differentiation and maturation stages. Therefore, it was tested whether the addition of BDNF (20 ng/ml) and GDNF (10 ng/ml) to NPEM during culture days 10-28 would result in a higher number of maturing neurons by day 28 (FIG. 4). […]
In all protocols, the differentiation was carried out in Neurobasal™ medium supplemented with B27 and N2. hiPS cells were subjected to neuroectoderm induction (days 0-8) under dual SMAD inhibition (noggin & SB431542) and additional retinoic acid (RA) supplementation to mimic signaling that occurs during embryonic neurogenesis. In protocol 2, the proliferative effects of FGF-2 (day 8-15) in neural progenitor cells (NPCs) were tested. In protocol 3, the effect of Notch inhibitor DAPT in neuronal commitment of NPCs (day 15-28) was tested. In protocol 4, the proliferative effects of TGF-beta 1 for glia cells (day 8-28) were tested. In protocol 5, TGF-beta 1 and DAPT treatments were combined in order to test whether development of glia and neurons can be enhanced simultaneously.
In order to assess the neurogenic and gliogenic potential afforded by the different protocols, tissues were collected at days −1, 0, 3, 8, 15, 28 and 40 (3-6 tissues/time point). Since the treatment until day 8 was identical for all protocols, tissues until that time point were only collected from protocol 1. […] Since treatment with DAPT (protocols 3 and 5) was evidently supporting neurogenesis and TGF-beta 1 appeared to support gliogenesis, the time course analysis was extended for protocol 3 (DAPT) and protocol 5 (DAPT and TGF-beta 1).

[2] = system: bioengineered neuronal organoids (BENOs) from human pluripotent stem cells; test: whole mount immunofluorescence (neurofilament) analysis of BENOs; type: cell-based
Method: as §1
Consequently, it appears advantageous to increase the amount of neural progenitor cells (NPCs) inside the tissue by treating the organoids with FGF-2 (days 8-15). This corresponds to the use of NPEM in the above protocol. To test whether the use of FGF-2 is favorable, tissues (3000 cell/μl) were treated with 10 ng/ml FGF-2 at two different time-points; day −2 to day 0 (before neural induction at the stem cell stage), and day 8 to day 15 at the NPC stage (FIG. 3B).

[3] = system: GABAergic network of BENOs (GABAR); test: calcium imaging of BENO neuronal network under GABAergic inhibition; type: cell-based, human; details: for synchrony of the same neurons upon inhibitor washout: after picrotoxin 58 μM and saclofen 330 μM; for synchrony of previously spontaneously synchronized neurons under GABAR inhibition: picrotoxin 58 μM and saclofen 330 μM applied together, BENOs days 30-60, n=3, 4 pairs of cells
Method: To test neuronal network activity, BENOs (days 30-60) were subjected to calcium imaging under GABAergic inhibition (carried out using picrotoxin, 58 μM; saclofen, 330 μM; n=3). GABAR inhibition led to an asynchrony of previously spontaneously synchronized neurons (4 pairs of cells).

[4] = protocols 3 and 5, DAPT day 15-28, time course
[5] = SB431542 added to noggin during neural induction (days 0-8) vs noggin only, n=4 tissues/group
[6] = BDNF (20 ng/ml) and GDNF (10 ng/ml) added together, culture days 10-28, analysed day 28

## C[C@H](NC(=O)Cc1cc(F)cc(F)c1)C(=O)NC(C(=O)OC(C)(C)C)c1ccccc1 (stereo partly shown) [DAPT]
[1]; DAPT added to NDM, day 15-28
  PAX6 transcripts: increase
[1]; [4]
  amount of the neuronal marker GABBR2: significantly increased
  amount of the neuronal marker GRIN1: significantly increased
  amount of the neuronal marker MAP2: significantly increased
  amount of the neuronal marker PAX 6: significantly increased

## FGF-2: member of the fibroblast growth factor family, encoded by the FGF2 gene
[2]; 10 ng/ml FGF-2, day -2-0 and days 8-15 vs days 8-15 only
  neurofilament staining, double treatment vs single treatment: did not seem to be advantageous
[2]; 10 ng/ml FGF-2, day -2 to day 0 (stem cell stage), read at day 28
  neurofilament staining, advantage compared to untreated tissues: did not appear to provide any advantage
[2]; 10 ng/ml FGF-2, days 8-15
  neuronal network complexity at day 28 (IF whole mount staining of neurofilament): more complex neuronal networks
[2]; 10 ng/ml FGF-2, days 8-15 (NPC stage)
  proliferation of the cells including NPCs: markedly induced proliferation
[1]; protocol 2, FGF-2 day 8-15, time course days -1 to 40
  level of different markers (OCT4, GFAP, PAX6, MAP2, GRIN1, GABBR2) at any time point: did not significantly influence

## NC(=O)c1ccc(-c2nc(-c3ccc4c(c3)OCO4)c(-c3ccccn3)[nH]2)cc1 [SB431542]
[2]; dual SMAD inhibition, noggin and SB431542, days 0-8, vs noggin only, day 28
  amount of maturing neurons (immunofluorescence and PAX6/MAP2 transcripts): clearly observed to be advantageous
[1]; [5]
  increase of neuronal marker MAP2 (qPCR): 21 fold
  increase of neuronal marker PAX6 (qPCR): 21 fold

## picrotoxin
[3]
  synchrony of the same neurons upon inhibitor washout: re-synchronized
  synchrony of previously spontaneously synchronized neurons under GABAR inhibition: asynchrony

## TGF-beta 1: transforming growth factor beta 1 (Peprotech)
[1]; protocols 4 and 5, TGF-beta 1 day 8-28, by day 40, vs the other 3 protocols
  amount of the glia marker GFAP: higher amounts

## NCC(CS(=O)(=O)O)c1ccc(Cl)cc1 (stereo not shown) [saclofen]
[3]
  synchrony of the same neurons upon inhibitor washout: re-synchronized
  synchrony of previously spontaneously synchronized neurons under GABAR inhibition: asynchrony

B1: BDNF: neurotrophic factor used to improve neuronal survival (protein, UniProt P23560 129-247, looked up)
Neurotrophic factor BDNF: HSDPARRGELSVCDSISEWVTAADKKTAVDMSGGTVTVLEKVPVSKGQLKQYFYETKCNPMGYTKEGCRGIDKRHWNSQCRTTQSYVRALTMDSKKRIGWRFIRIDTSCVCTLTIKRGR
modifications: Neurotrophic factor BDNF
[1]; [6]
  amount of the maturation marker MAP2: do not increase
  amount of the neuronal marker PAX 6: do not increase

B2: GDNF: neurotrophic factor used to improve neuronal survival (protein, UniProt P39905 78-211, looked up)
Glial cell line-derived …: SPDKQMAVLPRRERNRQAAAANPENSRGKGRRGQRGKNRGCVLTAIHLNVTDLGLGYETKEELIFRYCSGSCDAAETTYDKILKNLSRNRRLVSDKVGQACCRPIAFDDDLSFLDDNLVYHILRKHSAKRCGCI
[1]; [6]
  amount of the maturation marker MAP2: do not increase
  amount of the neuronal marker PAX 6: do not increase
